From US20090018106A1, “INTRAVENOUS FORMULATIONS OF PYRIDOXAL 5'- PHOSPHATE AND METHOD OF PREPARATION” (Medicure International Inc., priority 2005, published 2009)
Entries after “also recorded” stand apart in the source; their conditions may differ. Like-named read-outs stand apart in the source and are kept apart here.

Tests used:
[1] = Once daily intravenous 10 mg/kg P5P for four days, urinary excretion and renal clearance (Example Four); format: in vivo, human; conditions: 4 days, mean; for CL renal: human, urine and plasma, iv, 10 mg/kg, read-out: CLR, renal clearance (converted)
Procedure: (§1) Data sets analyzed—Six (6) healthy, adult non-smokers were administered intravenously a single daily dose of 10 mg/kb of P5P for four consecutive days and completed the study. In accordance with the study protocol, data from all subjects who completed the study were used for pharmacokinetic and statistical analysis.
(§2) Analytical Methods—Plasma and urine samples were used for analysis. P5P, PAL, and PA levels were determined by HPLC/FLD. The quantitation level was 5 ng/mL for plasma and 100 ng/mL for urine. The sample analysis calibration curve range was 5 ng/mL to 5000 ng/mL for plasma and 100 ng/mL to 50,000 ng/mL for urine.
Total and Renal Clearance—Total body clearance was estimated for P5P and was calculated as Dose/AUC0-inf.

clinical = test: clinical; design: species or system human; conditions: in vivo; for AUC: AUC0-τ; for half-life: T1/2 el
Procedure: as §1, §2
When the difference exceeded this time limit, the actual sampling times (rounded off to three decimal digits) were used to calculate pharmacokinetic parameters except for pre-dose samples, which were always reported as zero (0.000), regardless of time deviations. Scheduled sampling times are presented in concentration tables and graphs of the statistical section of the report.
Pharmacokinetic analyses (non-compartmental and compartmental) were performed at SFBC Anapharm. Pharmacokinetic parameters were calculated using either Bioequiv (release 3.40) or WinNonLin™ (release 4.0.1). Bioequiv is proprietary software developed and tested for bioequivalence studies at SFBC Anapharm. This software performs non-compartmental analyses of pharmacokinetic parameters and statistical analyses (via SAS release 6.12) according to FDA, HPFB and BMEA guidance.
The mean, standard deviation (SD), coefficient of variation (CV (%)) and range (min. and max.) were calculated for plasma concentrations of P5P (both baseline corrected and uncorrected), PAL and PA for each sampling time and treatment.
For the non-compartmental pharmacokinetic analyses the mean. SD, CV (%). range (min. and max.), median and interquartile range were calculated for the AUC0-t, (ng·h/mL), AUC0-t (ng·h/mL), AUC0-inf (ng·h/mL), Cmax (ng/mL), Cmin (ng/mL), Cavg (ng/mL), Fl(%), Ae0-t (ng), AUC^t/inf (%), Tmax (h), T1/2 el (h), Kel (h^−1), TLIN (h), LQCT (h). CLT (L/h), CLR (L/h). Vβ (L), MRT (h) and Accumulation ratio. The calculation of these pharmacokinetic parameters is explained below.
Cmax the maximum observed concentration, and Tmax, the time to reach that peak concentration, were determined for each subject and for each analyte. For Day 4 data, Cmin the minimum observed concentration was determined for each subject and for each analyte and Cavg was calculated as AUC0-τ/τ.
Percentage of Fluctuation—For Day 4 data, the peak-through percentage of fluctuation over one dosing interval (Fl(%)) was calculated as: 100*([Cmax−Cmin]/Cavg)
Half-Life and Elimination Rate Constant—To calculate the elimination rate constant (Kel), regression analyses were performed on the natural log(Ln) of plasma concentration values (y) versus time (x). Calculations were made between a time point where log-linear elimination phase begins (TLIN) and the time at which the last concentration above the limit of quantification (LQCT) occurred. The Kel was taken as the slope multiplied by (−1) and the apparent half-life (T1/2 el) as (In 2)/Kel.
TLIN and LQCT—TLIN, the time point where In-linear Kel calculation begins, and LQCT, the sampling time of the last quantifiable concentration used to estimate the Kel were determined by the scientist (according to SFBC Anapharm's standard operating procedures) for each subject and for each treatment. At least 4 non-zero observations during the terminal elimination phase were used to calculate the Kel. A minimum of 3 observations were used if less than 4 observations were available.
Areas Under the Concentration-Time Curves—AUC0-t was calculated using the linear trapezoidal rule from time 0.000 h until the last non-zero concentration.
AUC0-τ was calculated using the linear trapezoidal rule from time 0.000 h until 24.0 h.
The AUC0-inf was calculated as: […]

[2] = Cumulative urinary excretion after single intravenous dose of P5P (Example Three); format: in vivo, human; conditions: for Cumulative Urinary Excretion as Percent of the Dose: Percent (CV %)
Procedure: P5P, pyridoxal, and 4-pyridoxic acid were evaluated in both plasma and urine over a 24 hour interval following either intravenous or oral dosing. The results are set out below in Tables 2 and 3. The urinary excretion of the unchanged P5P is negligible. Less than 0.5% of the administered dose was found as P5P in the urine (Table 10). Similarly, very little of the dose was excreted in urine as PAL, between approximately 2 to 3% of the total dose (Table 10). PA represented the largest amounts found in urine. Over a 24-hour interval, between 30% and 52% of the given dose was excreted in urine as 4-pyridoxic acid.

[3] = Safety and tolerability of single intravenous doses of P5P (Example Three); format: in vivo, human
Procedure: Methodology—This was a single-blind, single-dose escalation, non-randomized, 4-phase, non-crossover study designed to evaluate the safety and tolerability of P5P intravenous injectable solution at doses of 1, 5, 10, 20 mg/kg, administered to four groups of healthy male and female subjects under fasting conditions and to estimate pharmacokinetic parameters of P5P.
Safety data were collected for each subject throughout the study by recording vital signs, ECGs and reported adverse events.
Primary Endpoint—Safety Parameters—The safety parameters investigated in this study were vital signs measurements (blood pressure, pulse rate), ECG measurements (1, 2 and 12 hours post-dose), platelet function testing, and severity and causality of adverse events experienced by subjects during the study period and laboratory assessments (clinical chemistry, hematology, urinalysis).

[4] = Safety evaluation of once daily intravenous 10 mg/kg P5P for four days (Example Four); format: in vivo, human
Procedure: as §1
Safety Methods—The safety parameters investigated in this study were: adverse events, vital sign measurements, ECGs, physical examination and standard laboratory evaluations.

[5] = 10 mg/kg iv once daily, Day 1, P5P uncorrected
[6] = 10 mg/kg iv once daily, Day 4, P5P uncorrected
[7] = Group 1, dose of P5P 1 mg/1 kg, single iv
[8] = Group 3, P5P 10 mg/kg single iv
[9] = Group 4, dose of P5P, single iv
[10] = P5P 10 mg/kg iv once daily, Day 1, PA
[11] = P5P 10 mg/kg iv once daily, Day 4, PA
[12] = P5P 10 mg/kg iv once daily, Day 1, PAL
[13] = P5P 10 mg/kg iv once daily, Day 4, PAL

Tmax (clinical; human, iv, 10 mg/kg) [h] | AUC(0-inf) (clinical; human, iv, 10 mg/kg, AUC0-inf) [ng·h/mL] | AUC(0-t) (clinical; human, iv, 10 mg/kg, AUC0-t) [ng·h/mL] | AUC (clinical; human, iv, 10 mg/kg) [ng·h/mL] | Cmax (clinical; human, iv, 10 mg/kg, Cmax) [ng/mL] | MRT (clinical; human, iv, 10 mg/kg) [h] | half-life (clinical; human, iv, 10 mg/kg) [h] | Tmax (clinical; human, iv, 10 mg/kg, Tmax) [h] | Cumulative Urinary Excretion as Percent of the Dose [2, 7] | Cumulative Urinary Excretion as Percent of the Dose ([2]; Group 2, P5P 5 mg/kg single iv) | Cumulative Urinary Excretion as Percent of the Dose [2, 8] | Cumulative Urinary Excretion as Percent of the Dose [2, 9] | Ratio of LS Means, AUC0-inf (clinical; human) [%] | Ratio of LS Means, AUC0-t (clinical; human) [%] | Ratio of LS Means, Cmax (clinical; human) [%] | AUC(0-inf) (clinical; human, iv, 10 mg/kg) [ng·h/mL] | AUC(0-t) (clinical; human, iv, 10 mg/kg) [ng·h/mL] | Cmax (clinical; human, iv, 10 mg/kg) [ng/mL] | SMILES | ANOVA, difference between treatment days (clinical) | other results
0.081 | 283000 | 278000 | 303000 | 191000 | 3.4 | 5.14 | 0.089 | 0.06 (161) Percent | 0.08 (96) Percent | 0.02 (167) Percent | 0.26 (73) Percent |  |  |  |  |  |  | Cc1ncc(COP(=O)(O)O)c(C=O)c1O [P5P, Pyridoxal 5′-phosphate, reference compound] | did not detect any statistically significant difference | Ae0-t, total amount excreted in urine [1, 5]: 848625 ng; Ae0-t, total amount excreted in urine [1, 6]: 558650 ng; CL renal [1, 5]: 0.0465 mL/min; CL renal [1, 6]: 0.029 mL/min; Tmax (clinical; human, Tmax): 0.067 h; AUC0-τ (clinical; human, iv, 10 mg/kg): 303393.72 ng·h/mL; clearance (clinical; human, iv, 10 mg/kg, CLτ (text: CLT, total body clearance)): 42.5 mL/min; part of the administered dose found in urine ([2]; single iv P5P 1-20 mg/kg, 24-hour interval): Less than 0.5%; safety and tolerability ([3]; single iv dose, doses up to 20 mg/kg): safe and well tolerated; common side effects observed ([3]; single iv doses 1-20 mg/kg): nausea, vomiting and stomach upset; clinically significant elevated white blood cells (WBC) in urine (pyuria) ([4]; 10 mg/kg iv once daily, 4 days): observed for two subjects; diarrhea or vomiting ([4]; 10 mg/kg iv once daily, 4 days): No diarrhea or vomiting was reported; overall safety profile ([4]; 10 mg/kg iv once daily, 4 days): No serious, severe, or significant adverse events; also recorded: well tolerated with no serious or lasting treatment related effects; abnormal taste in the mouth ([4]; 1 subject, 10 mg/kg iv once daily, 4 days): 16.7%; dizziness (feels dizzy and dizziness) ([4]; 2 subjects, 10 mg/kg iv once daily, 4 days): 33.3 % of subjects; nausea ([4]; 3 subjects, 10 mg/kg iv once daily, 4 days): 50.0 % of subjects; inflammation at injection site ([4]; 3 subjects, judged unrelated to the study medication): 50.0 % of subjects; total adverse events ([4]; six subjects, 10 mg/kg iv once daily, 4 days): 40
0.528 | 21200 | 20700 | 21200 | 4360 | 3.85 | 2.3 | 0.611 | 52.25 (28) Percent | 47.18 (32) Percent | 29.78 (32) Percent | 40.55 (54) Percent | 99.47 | 99.75 | 97.17 | 21097.95 | 20704.80 | 4238 | Cc1ncc(CO)c(C(=O)O)c1O [PA, 4-pyridoxic acid] | did not detect any statistically significant difference | Ae0-t, total amount excreted in urine [1, 10]: 172950596 ng; Ae0-t, total amount excreted in urine [1, 11]: 225885311 ng; CL renal [1, 10]: 144 mL/min; CL renal [1, 11]: 179 mL/min
0.691 | 22400 | 22300 | 29700 | 7630 | 4.06 | 3.4 | 0.525 | 1.93 (101) Percent | 3.00 (37) Percent | 2.73 (20) Percent | 2.46 (33) Percent | 133.70 | 132.83 | 101.45 | 30077.45 | 29682.94 | 6902 | Cc1ncc(CO)c(C=O)c1O [PAL, pyridoxal] |  | Ae0-t, total amount excreted in urine [1, 12]: 18583712 ng; Ae0-t, total amount excreted in urine [1, 13]: 21011635 ng; CL renal [1, 12]: 14.3 mL/min; CL renal [1, 13]: 12.1 mL/min; ANOVA, difference between treatment days (clinical; human): statistically significant difference between treatment days was detected using ANOVA for In-transformed AUC0-t, and AUC0-inf but not for Cmax
